Reference: a melting point compilation (Tetko et al.; mined from patent text by program, amines drawn as free bases though some values may be those of a salt)

| melting point [°C] | Structure (SMILES) |
| --- | --- |
| 184 to 186 | c1ccc(-c2nn3c(c2-c2ccc4nsnc4c2)CCC3)nc1 |
| 259 to 261 | CN1CCC(c2nc(-c3ccncc3)c(-c3ccc(F)cc3)[nH]2)CC1 |
| 228 | COc1cc(N)c(Cl)cc1C(=O)NC1CCN(CCNC(=O)C(O)c2ccccc2)CC1OC (stereo unspecified) |
| 118 to 120 | Nc1nc2ccccc2c2c1nc(-c1ccccc1)n2CCCCNC(=S)Nc1cccnc1 |
| 172 to 173 | O=C(NO)c1cnc(N2CCC(CNS(=O)(=O)c3ccc(C(=O)Nc4ccc(Cl)c(-c5ccccn5)c4)c(Cl)c3)CC2)nc1 |
| 169 to 170 | CSc1nnc2n1C=Cc1ccccc1C2c1ccccc1 (stereo unspecified) |
| 107 | CCCOc1ccc(OC)c(-c2csc(NC(=O)c3ccc(OCC(OCC)OCC)cc3)n2)c1 |
| 127 to 129 | CCOC(=O)c1c(CCCn2cncn2)nc2sc3cnccc3c2c1-c1ccc(OC)c(OC)c1 |
| 166 to 168 | CCOc1cc(C(O)CS(C)(=O)=O)cc(OCC)c1N (stereo unspecified) |
| 220 to 226 | O=c1c2c(Cl)cc(Cl)cc2n(Cc2ccccc2)c(=O)n1Cc1cccc2ccccc12 |
| 155 to 158 | COc1cc(Nc2c(C#N)cnc3cc(-c4cccc(CN5CCOCC5)c4)c(OC)cc23)c(Cl)cc1Cl |
| 174 | Nc1ccc(-c2cc(OCC(=O)N3CCOCC3)c3c(C(F)(F)F)cccc3n2)cc1 |
| 240 | COc1ccccc1[C@@]1(O)[C@H](O)CC(c2ccccc2)(c2ccccc2)[C@@H]2CN(C(=O)Cc3cn(C)c4ccccc34)C[C@@H]21 (racemic) |
| 210 to 211 | Cc1cc(CCC2(C)NC(=O)NC2=O)cc(C(C)(C)C)c1O (stereo unspecified) |
| 197 to 198 | CCOC(=O)Cc1c(C(=O)O)c(C)c(C(=O)c2ccc(Cl)cc2)n1C |
| 116 to 118 | CC(=O)O[C@H]1C[C@@H]2CN(C(=O)c3ccc(NC(=O)c4ccccc4-c4ccccc4)cc3)c3ccccc3CN2C1 |
| 115 to 120 | O=C(O)CCCCN(C1CCNCC1)S(=O)(=O)c1ccccc1 |
| 65 to 66 | CCC(=Cc1cccc([N+](=O)[O-])c1)C(=O)Oc1ccc(OC)cc1 |
| 135 | Cc1c(CC(=O)NCCO[N+](=O)[O-])cc(-c2ccc(S(C)(=O)=O)cc2)n1-c1ccc(F)cc1 |
| 138 to 140 | O=CN(O)C(Cc1cccc(CC(=O)O)c1)CS(=O)(=O)c1ccc(Oc2ccc(OC(F)(F)F)cc2)cc1 (stereo unspecified) |

| melting point [°C] | Structure (SMILES) |
| --- | --- |
| 144 to 145 | Fc1ccc2c(CN3CCc4ccccc4C3)c[nH]c2c1 |
| 158 to 159 | Cc1nc(-c2ccccc2C(F)(F)F)c(CC(Cl)C(=O)O)o1 (stereo unspecified) |
| 164 to 167 | CON=Cc1ccc(-c2cc(F)cc(F)c2NC(=O)c2c(C)nn(C)c2F)cc1 |
| 159 to 160 | O=S(=O)(NC(c1ccc(F)cc1)c1ccnn1-c1ccc(F)cc1)c1ccc(Cl)s1 (stereo unspecified) |
| 95 to 97 | O=S1(=O)c2cccc3cccc(c23)N1CCCN1CCN(c2ccc(F)cc2)CC1 |
| 175 to 176 | CC(=O)Nc1c(C(=O)c2ccc(Cl)cc2)[nH]c2cc(Cl)ccc12 |
| 179 to 180 | CC(Sc1nc(N)cc(Cl)n1)c1nccc2ccccc12 (stereo unspecified) |
| 130 | Cc1ccc(S(=O)(=O)N2[C@@H](C(N)=O)CC[C@H]2c2ccccc2)cc1 (racemic) |
| 164 to 165 | CC(=O)N1CC(=O)Nc2ccccc21 |
| 160 to 162 | CC(C)(C)OC(=O)NCc1cccc(-c2nc(=O)c3ccccc3s2)n1 |
| 83 to 85 | CSCC(O)C1(Sc2ccccc2)C(=O)N2C1CCOC2(C)C (stereo unspecified) |
| 225 to 227 | N#Cc1ccc(Cn2c3cc(O)c(O)cc3c3ccc(O)c(O)c32)cc1 |
| 178 to 181 | COc1ccc(N2CCC(C(N)=O)CC2)cc1 |
| 147 to 148 | CN1C(=O)CC[C@]2(C)c3ccc(-c4cccc(F)c4F)cc3CC[C@@H]12 |
| 207 | NC(=O)c1ccc(N2CCN(CCC3C=Cc4ccccc43)CC2)cc1 (stereo unspecified) |
| 80 to 82 | OCCc1nccn1CCCc1ccc(OCc2ccccc2)cc1 |
| 124 to 125 | OCCCn1c(=S)[nH]c2c(OCc3ccccc3)cccc21 |
| 157 to 159 | CC(=O)C1CC=C2C(CCC3=Cc4c(cnn4-c4ccc(F)cc4)CC32C)C1C(C)=O (stereo unspecified) |
| 149 to 151 | COc1ccc(S(=O)(=O)Nc2c(Nc3ccccc3)ncnc2Nc2ccccc2)cc1 |
| 210 to 214 | Oc1ccc(-c2cc3c(Cl)c(O)ccc3o2)cc1 |

| melting point [°C] | Structure (SMILES) |
| --- | --- |
| 259 to 263 | O=C(Nc1ccc(C(F)(F)F)cc1)Nc1ccc2ncccc2c1 |
| 204 to 206 | COc1ccc(-c2nc(N3CCOCC3)c3c(C)c(C#N)sc3n2)cc1 |
| 105 | O=C(O)CCC(c1ccccc1)c1ccccc1F (stereo unspecified) |
| 119 to 122 | O=C1O[C@@H](CO)CN1c1ccc(C2=CCSCC2)c(F)c1 |
| 83 to 96 | CCCc1ccc2oc(Cc3ccc(OC)cc3)c(C)c2c1O |
| > 300 | Cc1c(C(Cl)=Cc2ccc(C(F)(F)F)cc2)ccc2nc(N)nc(N)c12 |
| > 240 | COc1ccc(-c2ccc(COc3cc4c(cc3CCN(CCCCC(=O)O)Cc3ccc(C(=O)O)cc3)CCCC4)cc2)cc1 |
| 230 to 231 | CC1(C)CC(=C(c2ccc(O)cc2)c2ccc(-c3ccccc3C(=O)O)cc2)CC(C)(C)C1 |
| 113 to 122 | COc1cc(OCCN2CCOCC2)ccc1/C=C/c1cc(/C=C/c2ccc3cc[nH]c3c2)n[nH]1 |
| 210 to 212 | Cc1cc(C)c(Nc2nc(C)ncc2S(=O)(=O)c2ccc(-c3cncnc3)cc2)c(C)c1 |
| 111 to 112 | COC(=O)C[C@@H]1C[C@@H](COc2ccc(-c3ccc(C#N)cc3)cc2N)N(CCCc2ccccc2)C1=O |
| 198 to 199 | CS(=O)(=O)NC(=O)c1ccc(OCCn2ccnc2)cc1 |
| 149 | Cc1ccc(-c2nc3ccccc3nc2-c2ccc(C)cc2)cc1 |
| 185 | Oc1c(CN2CCSCC2)ncc2c1COC2c1ccccc1 (stereo unspecified) |
| 162 to 164 | N=C(N)c1sccc1-c1ccc(CN2CCSC2)cc1 |
| 179 to 182 | CC(C)(C)c1ccc(C(O)CCCN2CCC(C(O)(c3ccccc3)c3ccc(C(C)(C)C)cc3)CC2)cc1 (stereo unspecified) |
| 280 to 281 | CCCc1c(OCC(O)COc2ccc3c(=O)cc(C(=O)O)sc3c2CCC)ccc(C(C)=O)c1O (stereo unspecified) |
| 53 to 54 | CC(=O)C1CC(c2ccccc2)CCC1=O (stereo unspecified) |
| 194 to 196 | CNc1nc(-c2cccc(NC(=O)c3ccccc3OC)c2)c2cc(OC)c(OC)cc2n1 |

The remaining lines, values behind:

| Structure (SMILES) | melting point [°C] |
| --- | --- |
| COc1cccc(OC)c1C(=O)P(CC(C)C)C(=O)c1c(OC)cccc1OC | 138 to 140 |
| CN(C)C=Cc1ccc([N+](=O)[O-])c2[nH]ncc12 | 255 |
| N#CCSC(=O)c1ccco1 | 76 to 78 |
| ClCCc1nnc2ccccc2c1Cl | 81 to 82 |
| COc1ccc([N+](=O)[O-])cc1OC(F)F | 48 to 49 |
| O=C(NC1=NN(c2ccc(C(=O)C(F)(F)F)cc2)CC1)C(F)(F)F | 228 to 230 |
| CCC1C(=O)Nc2ccc(Br)cc21 (stereo unspecified) | 118 to 120 |
| CCCCCCCCCCCCCCCCCCNC(=O)OC[C@@H]1OCCC[C@H]1O (relative stereo) | 55 to 56 |
| O=C(O)c1cc(NCc2c(F)c(F)c(C(F)(F)F)c(F)c2F)ccc1OC(F)(F)F | 38 |
| O=S1(=O)N=CN(C2CCCCCC2)c2cc(Cl)c(Cl)cc21 | 222 to 224 |
| N#CCc1ccc(NC(=O)C=C2CC(C(=O)O)Nc3cc(Cl)cc(Cl)c32)cc1 (racemic) | 200 to 202 |
| NC1CCCCCCCCCCC(=O)N1 (single isomer, unassigned; (-)) | 128 to 130 |
| CNC(=O)Oc1cnn(C(C)C)c1 | 40 |
| NC(=O)c1c(Cl)c(Cl)c(Cl)c(Cl)c1Cl | 268 to 270 |
| CC1(C)C(=O)Nc2cc3[nH]c(NC(=O)c4ccncc4)nc3cc21 | > 300 |
| CC(Cn1ncnn1)n1nnc2cc3c(=O)n(CC#N)nnc3cc2c1=O (stereo unspecified) | 209 to 212 |
| NC(=O)c1cn(Cc2c(F)cccc2F)nn1 | 237 to 240 |
| CC1(C)CCC(C)(C)c2cc(-c3cc(-c4ccc(C(=O)O)cc4)ccc3C(=O)O)ccc21 | 343 |
| CC(=O)c1cc(S(=O)(=O)N(C)C)c(Cl)cc1Cl | 98 to 100 |
| CSc1n[nH]c(NC(=O)c2ccccc2O)n1 | 306 to 309 |
| CN(C)CCc1cn(C)c2c(F)ccc(OCc3ccccc3)c12 | 60 to 62 |

| Structure (SMILES) | melting point [°C] |
| --- | --- |
| CN(c1ncccc1C#N)C1CCN(Cc2ccccc2)CC1 | 58 to 60 |
| CSc1cc(C(=O)O)ccc1C | 175 |
| NS(=O)(=O)c1nc2ccc(O)cc2s1 | 209 |
| CCOC(=O)c1cc(C#N)c(Cl)cc1OC | 102 to 103 |
| CC(=O)N[C@@H](CO)C(=O)NCc1ccccc1 | 147 to 148 |
| Cc1cccc(C(=O)C=CN(C)C)n1 | 97 to 98 |
| C[C@]12CCC(=O)N[C@@H]1CCc1cc(C=O)ccc12 | 185 to 189 |
| Oc1cc(O)cc(CN/C=C2\CN=Cc3ccc(Br)cc32)c1 | 263 to 264 |
| CC(C)NOP(=O)(O)C(C(C)C)N(CC(=O)OCCCl)C(=O)C(F)(F)F (stereo unspecified) | 87.5 to 89 |
| CCOC(=O)c1c(O)c2sccc2[nH]c1=O | 218 |
| O=C(O)CCCCCCC1(CCCCCCC(=O)O)C(=O)NC(=O)N1CCC(O)C1CCCCC1 (stereo unspecified) | 116 to 118 |
| CCOP(=O)(Cc1ccnc(C(N)=O)c1)OCC | 140 to 142 |
| Cc1nn(C(C)C)cc1C(=O)NC(C#N)c1cccs1 (stereo unspecified) | 140 to 142 |
| CC(=O)Cc1ccc(O)cn1 | 119 to 120 |
| CCOC(=O)C1=CC2=C(C)C(C)(OC)C=C(C)C2=N1 (stereo unspecified) | 182 to 183 |
| CCC1N=C(c2ccccc2Cl)c2cc(CCC(=O)OC)sc2NC1=O (stereo unspecified) | 187 to 189 |
| CNC(=O)N(C)C1=NN(C(=O)C(C)(C)C)C(C)S1 (stereo unspecified) | 168 to 169 |
| CCOC(=O)c1cc(C#N)c(C=O)nc1N1CCCCC1 | 62 to 64 |
| CCCCCOc1cc(C=CC(=O)O)ccc1OC | 150 |
| c1cc(-c2ccn3cnnc3c2)ccn1 | 194 to 196 |
| C=CCN(CC=C)C(=O)n1cnc(S(=O)(=O)CCCCC)n1 | 28 to 30 |
